The results in this text go back to patent publication US4505924A, “Pharmaceutical preparation for the topical treatment of acne” (Richardson-Vicks Ltd., priority 1982, dated 1985).

Assay [1] in a line: Zone diffusion test for synergistic activity. It counts as cell-based. To be noted: single substance; for zone of inhibition at 10 µg/disc: 10 μg; for zone of inhibition at 100 µg/disc: 100 μg. The procedure:
Imazalil and Hexamidine were tested for synergistic activity using a zone diffusion test.

For assay [2], the system named is P. acnes. The assay can be described thus: Zone diffusion test using 1% artificial sebum in agar (resistance to inactivation by sebum). It counts as cell-based. To be noted: for zone of inhibition at 10 µg/disc / zone of inhibition at 100 µg/disc: Cutibacterium acnes; for zone of inhibition at 10 µg/disc: 10 μg; for zone of inhibition at 100 µg/disc: 100 μg.
In assay [3] the test system is lipase. As to the kind of experiment: Direct inhibition of P. acnes lipase activity. It counts as biochemical, Propionibacterium acnes. How it is done: (§1) Imazalil and Hexamidine have been studied for anti-enzymic properties against the production and activity of the exoenzymes of Propionibacterium acnes.
There was a 29% reduction of lipase activity in the presence of 10 μg/ml Imazalil and a 68% reduction with 100 μg/ml Imazalil.
(i) A leval of 1 μg/ml Hexamidine reduced lipase activity by 33%.
(i) 100 μg/ml Imazalil and 1 ug/ml Hexamidine reduced lipase activity by 55%.

The subject of assay [4] is acid phosphatase. The assay can be described thus: Acid phosphatase production by P. acnes in continuous culture (chemostat). The assay is classed as cell-based, Propionibacterium acnes. The conditions noted are these: growth in the presence of 10 μg/ml Imazalil.
Text: (§2) The enzymes are believed to play a role in the pathogenesis of acne. Imazalil is a direct lipase inhibitor and also reduces the production of hyaluronidase and acid phosphatase. Hexamidine likewise reduces the lipase activity.
as §1
(§3) (ii) Imazalil reduced the output of hyaluronidase and acid phosphatase by P.acnes.
(§4) Levels of hyaluronidase fell by 50% after growth in the presence of 10 μg/ml Imazalil.
(§5) (ii) Production of lipase, hyaluronidase and acid phosphatase was markedly affected by a mixture of 10 μg/ml Imazalil and 1 μg/ml Hexamidine. […] Hyaluronidase output was reduced by 50%. Acid phosphatase output was reduced by 80%.

Assay [5] deals with Pi. ovale. The assay can be described thus: Zone diffusion test. The assay is classed as cell-based. The conditions noted are these: Pityrosporum ovale, read-out: Zone of Imhibition, Pi. ovale.
Assay [6] has as its system P. acnes. As to the kind of experiment: Zone diffusion test. It counts as cell-based. The procedure: (§6) A zone diffusion test was carried out on the three emulsions. The results were as follows:
(§7) The ranking order for activity against P. acnes was the same as the GMS emulsions.

Assay [7] has as its system S. epidermidis. As to the kind of experiment: Zone diffusion test. The assay is classed as cell-based. How it is done:
as §6, §7

The test system of assay [8] is hyaluronidase. As to the kind of experiment: Hyaluronidase production by P. acnes in continuous culture (chemostat). The assay is classed as cell-based, Propionibacterium acnes. To be noted: growth in the presence of 10 μg/ml Imazalil.
Text: as §2, §1, §3, §4, §5

Setting [9] is: 1% artificial sebum in agar, read-out: Zone of Inhibition, Sebum.
[10] abbreviates: control agar, read-out: Zone of Inhibition, Control.

Molecules are shown by their SMILES. Where two headings read alike, the source gives them in different places.

With `C=CCOC(Cn1ccnc1)c1ccc(Cl)cc1Cl` (stereo not drawn) [Imazalil, 1-[2-(2,4-dichlorophenyl)-2-(2-propenyloxy)ethyl]-1H-imidazole], the zone of inhibition at 10 µg/disc in assay [1] amounted to 0 mm; in assay [2] (setting [9]), 0 mm; in assay [2] (setting [10]), 0 mm; in assay [5] (10 μg), 11 mm; in assay [6] (Cutibacterium acnes, 10 μg, read-out: Zone of Imhibition, P. acnes), 3 mm; in assay [7] (Staphylococcus epidermidis, 10 μg, read-out: Zone of Imhibition, S. epidermidis) it was 3 mm. The values for the zone of inhibition at 100 µg/disc in assay [1], in assay [2] (setting [9]) and in assay [2] (setting [10]) were 5.5 mm, 1.5 mm and 5 mm, respectively. Also, the “inhibitive effect of lipids (sebum) on activity” value in assay [2] (1% artificial sebum in agar) was “partially inhibited”. In addition, the figures for the “reduction of lipase activity” value in assay [3] (10 μg/ml Imazalil) and in assay [3] (100 μg/ml Imazalil) were 29% and 68%, respectively. Also, the “Production of acid phosphatase” value in assay [4] was “totally inhibited”. In addition, the zone of inhibition at 80 µg/disc was determined as 28 mm in assay [5] (80 μg); 22 mm in assay [6] (Cutibacterium acnes, 80 μg, read-out: Zone of Imhibition, P. acnes); 7.5 mm in assay [7] (Staphylococcus epidermidis, 80 μg, read-out: Zone of Imhibition, S. epidermidis). Moreover, the “fall of hyaluronidase levels” value in assay [8] worked out at 50%.
Consider `N=C(N)c1ccc(OCCCCCCOc2ccc(C(=N)N)cc2)cc1` [Hexamidine, 4,4-(hexamethylene (dihydroxy)-dibenzamidine-di-β-hydroxy ethanesulfonate], for which the zone of inhibition at 1 µg/disc in assay [1] (1 μg) was determined as 3 mm. Besides, the zone of inhibition at 10 µg/disc in assay [1] was 10 mm; in assay [2] (setting [9]), 11 mm; in assay [2] (setting [10]), 9 mm. The zone of inhibition at 100 µg/disc in assay [1] was found to be 29.5 mm; in assay [2] (setting [9]), 33 mm; in assay [2] (setting [10]) it was 31.5 mm. The “inhibitive effect of lipids (sebum) on activity” value in assay [2] (1% artificial sebum in agar) is “totally resistant”. Besides, in assay [3] (1 μg/ml Hexamidine), the “reduction of lipase activity” value came to 33%. Besides, the “Zone of Imhibition, P. acnes” value in assay [6] (20 μg) is listed as 22.5 mm. For the same molecule, the zone of inhibition at 20 µg/disc in assay [6] (Cutibacterium acnes, 20 μg, read-out: Zone of Imhibition, P. acnes) turned out to be 17 mm; in assay [7] (Staphylococcus epidermidis, 20 μg, read-out: Zone of Imhibition, S. epidermidis), 10 mm. Besides, in assay [7] (20 μg), the “Zone of Imhibition, S. epidermidis” value amounted to 13 mm.
